Reference: patent EP4005557A1, “METHOD FOR PREPARING NANOSYSTEMS” (Université de Genève, priority 2020, dated 2022)

Legend:
[1] = Contact angle measurement on a solid surface by sessile drop technique (wetting properties); format: physicochemical; conditions: Table 3, voriconazole series
Protocol: The contact angles of voriconazole alone, glucose, voriconazole micelle formulation and voriconazole liposome formulation on a solid surface were measured by sessile drop technique using Lorentzen and […], type 28 optical tensiometer. The purpose of measuring the contact angle is to determine the wetting properties of the formulation. Higher contact angles correspond to poor wetting whereas lower contact angle correspond to good wetting properties. Micelles and liposomes of itraconazole have been prepared according to the method described in example 1. The contact angles of itraconazole alone, glucose, itraconazole micelle formulation and itraconazole liposome formulation on a solid surface were measured by sessile drop technique using Lorentzen and […], type 28 optical tensiometer.

[2] = drug alone; no method described; cited from earlier work

Contact angle [1]: 68.2°
Compound: C[C@@H](c1ncncc1F)[C@](O)(Cn1cncn1)c1ccc(F)cc1F [Voriconazole]
Log P [2]: 1.75
